Source: US11319321B2, “[1,2,4]triazolo[1,5-a]pyrimidine compounds as PDE2 inhibitors” (Janssen Pharmaceutica NV, priority 2016, dated 2022)
Read-outs that look alike come from different tables or passages of the source.

How the values were obtained:
[1] = biological target: T1, Human recombinant PDE2A (hPDE2A) (Homo sapiens, UniProt O00408); experiment: In vitro assay PDE2A (SPA, 3H-cGMP); assay type: biochemical
T1 construct: made in house; host or cells: Sf9 insect cells (baculovirus)
Experimental: Human recombinant PDE2A (hPDE2A) was expressed in Sf9 cells using a recombinant rPDE10A baculovirus construct. Cells were harvested after 48 h of infection and the hPDE2A protein was purified by metal chelate chromatography on Ni-sepharose 6FF. Tested compounds were dissolved and diluted in 100% DMSO to a concentration 100 fold of the final concentration in the assay. Compound dilutions (0.4 μl) were added in 384 well plates to 20 μl of incubation buffer (50 mM Tris pH 7.8, 8.3 mM MgCl2, 1.7 mM EGTA). 10 μl of hPDE2A enzyme in incubation buffer was added and the reaction was started by addition of 10 μl substrate to a final concentration of 10 μM cGMP and 0.01 μCi ^3H-cGMP. The reaction was incubated for 45 minutes at room temperature. […] After sedimentation of the beads during 30 minutes the radioactivity was measured in a Perkin Elmer Topcount scintillation counter and results were expressed as cpm. For blanc values the enzyme was omitted from the reaction and replaced by incubation buffer. Control values were obtained by addition of a final concentration of 1% DMSO instead of compound.

hPDE10A2 = hPDE10A2 (Homo sapiens, UniProt Q9Y233); experiment: biochemical; settings: 60 nM cAMP substrate; for IC50: human clone, read-out: hPDE10A2 or rPDE10A2 pIC50 (converted); for Emax: read-out: hPDE10A2 or rPDE10A2 Emax, human clone
Sequence of hPDE10A2 (Q9Y233 267-1055): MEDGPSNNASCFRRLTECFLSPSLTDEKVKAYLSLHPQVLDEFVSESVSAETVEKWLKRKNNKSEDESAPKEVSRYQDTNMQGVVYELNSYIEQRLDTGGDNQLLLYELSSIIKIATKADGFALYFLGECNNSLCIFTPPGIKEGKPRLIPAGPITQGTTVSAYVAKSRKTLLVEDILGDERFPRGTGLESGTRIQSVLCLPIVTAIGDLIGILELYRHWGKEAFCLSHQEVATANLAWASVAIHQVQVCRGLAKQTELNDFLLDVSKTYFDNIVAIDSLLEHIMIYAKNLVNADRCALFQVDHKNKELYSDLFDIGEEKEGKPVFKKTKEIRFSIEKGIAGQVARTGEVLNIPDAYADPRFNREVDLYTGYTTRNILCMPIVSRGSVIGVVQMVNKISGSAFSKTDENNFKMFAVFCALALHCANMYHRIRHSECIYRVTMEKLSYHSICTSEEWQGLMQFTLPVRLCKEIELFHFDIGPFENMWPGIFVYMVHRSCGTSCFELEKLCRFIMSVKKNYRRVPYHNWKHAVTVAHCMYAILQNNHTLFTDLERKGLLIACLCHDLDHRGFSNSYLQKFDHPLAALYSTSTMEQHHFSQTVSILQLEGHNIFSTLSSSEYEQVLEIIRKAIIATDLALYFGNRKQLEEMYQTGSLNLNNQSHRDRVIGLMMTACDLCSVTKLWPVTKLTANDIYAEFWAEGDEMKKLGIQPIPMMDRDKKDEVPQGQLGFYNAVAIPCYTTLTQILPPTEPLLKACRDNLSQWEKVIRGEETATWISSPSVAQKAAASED
Experimental: Rat recombinant PDE10A (rPDE10A2) was expressed in Sf9 cells using a recombinant rPDE10A baculovirus construct. Cells were harvested after 48 h of infection and the rPDE10A protein was purified by metal chelate chromatography on Ni-sepharose 6FF. Tested compounds were dissolved and diluted in 100% DMSO to a concentration 100 fold of the final concentration in the assay. Human recombinant PDE10A ([…]) was expressed in Sf9 cells using a recombinant hPDE10A baculovirus that was made and amplified in house. Cells were harvested after 72 h of infection and the hPDE10A protein was purified by metal chelate chromatography on Ni-sepharose. Compound dilutions (0.4 μl) were added in 384 well plates to 20 μl of incubation buffer (50 mM Tris pH 7.8, 8.3 mM MgCl2, 1.7 mM EGTA). 10 μl of rPDE10A or hPDE10A enzyme in incubation buffer was added and the reaction was started by addition of 10 μl substrate to a final concentration of 60 nM cAMP and […] ^3H-cAMP. The reaction was incubated for 60 minutes at room temperature. After incubation, the reaction was stopped with 20 μl of stop solution consisting of 17.8 mg/ml PDE SPA (scintillation proximity assay) beads. After sedimentation of the beads during 30 minutes the radioactivity was measured in a Perkin Elmer Topcount scintillation counter and results were expressed as cpm. For blanc values the enzyme was omitted from the reaction and replaced by incubation buffer. Control values were obtained by addition of a final concentration of 1% DMSO instead of compound. A best fit curve is fitted by a minimum sum of squares method to the plot of % of control value substracted with blanc value versus compound concentration and the half maximal inhibitory concentration (IC50) value is derived from this curve.

hPDE3B = experiment: In vitro assay PDE3 (SPA, 3H-cAMP); assay type: biochemical, human; settings: 0.4 μM cAMP substrate; for hPDE3B Emax: in % (unit assumed)
[2] = hPDE2A pIC50, 10 μM cGMP substrate
[3] = 10 μM cGMP substrate, read-out: hPDE2A pIC50 (converted)

T1 sequence (O00408 whole entry): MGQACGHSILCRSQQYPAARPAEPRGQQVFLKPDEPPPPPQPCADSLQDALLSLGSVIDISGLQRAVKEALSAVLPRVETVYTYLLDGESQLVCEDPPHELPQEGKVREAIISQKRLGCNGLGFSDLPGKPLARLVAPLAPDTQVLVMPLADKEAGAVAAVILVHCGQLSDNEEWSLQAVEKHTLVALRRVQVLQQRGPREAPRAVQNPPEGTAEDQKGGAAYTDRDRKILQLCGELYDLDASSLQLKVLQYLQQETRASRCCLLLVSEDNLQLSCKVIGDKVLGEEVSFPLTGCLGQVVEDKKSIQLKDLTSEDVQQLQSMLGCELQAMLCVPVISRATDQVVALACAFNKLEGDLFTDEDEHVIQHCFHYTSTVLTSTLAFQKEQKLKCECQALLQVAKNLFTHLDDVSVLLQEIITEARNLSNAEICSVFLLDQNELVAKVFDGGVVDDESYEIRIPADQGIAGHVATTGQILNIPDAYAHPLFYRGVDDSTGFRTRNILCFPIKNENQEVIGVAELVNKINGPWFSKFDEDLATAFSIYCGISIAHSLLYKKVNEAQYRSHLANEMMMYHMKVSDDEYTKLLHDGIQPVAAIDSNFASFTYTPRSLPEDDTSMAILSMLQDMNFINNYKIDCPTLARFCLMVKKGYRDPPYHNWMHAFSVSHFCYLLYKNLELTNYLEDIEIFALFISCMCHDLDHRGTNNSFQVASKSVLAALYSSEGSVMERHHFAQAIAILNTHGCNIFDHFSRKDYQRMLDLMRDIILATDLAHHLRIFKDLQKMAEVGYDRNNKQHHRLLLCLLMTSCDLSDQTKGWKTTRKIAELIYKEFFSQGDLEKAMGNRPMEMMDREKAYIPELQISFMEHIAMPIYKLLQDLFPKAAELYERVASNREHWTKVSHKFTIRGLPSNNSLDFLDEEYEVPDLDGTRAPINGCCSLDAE

| Compound | Emax ([1]; 10 μM cGMP substrate) | IC50 [1, 2] | IC50 (hPDE10A2) | Emax (hPDE10A2) | hPDE3B pIC50 (hPDE3B) | hPDE3B Emax (hPDE3B) | IC50 [1, 3] | IC50 [1] |
| --- | --- | --- | --- | --- | --- | --- | --- | --- |
| Cc1cc(C(C)N2CC[C@@H](C)[C@H](c3cc(C(F)F)nc4ncnn34)C2)cc(C)n1 (mixture of isomers) [Compound 1] | 100% | 20.9 nM | 2950 nM | 74% | <5 | 45 |  |  |
| Cc1cc([C@H](C)N2CC[C@@H](C)[C@H](c3cc(C(F)F)nc4ncnn34)C2)cc(C2CC2)n1 (relative stereo) [Compound 2] | 99% |  | 2950 nM | 78% | <5 | 29 | 87.1 nM |  |
| C[C@@H]1CCN([C@@H](C)c2ccc(C(F)(F)F)cc2)C[C@H]1c1cc(C(F)F)nc2ncnn12 (relative stereo) [Compound 6] | 99% |  | 6310 nM | 68% | <5 | 37 |  | 178 nM |
| C[C@@H]1CCN([C@H](C)c2ccc(C(F)(F)F)cc2)C[C@H]1c1cc(C(F)F)nc2ncnn12 (relative stereo) [Compound 7] | 98% |  | 7760 nM | 47% | 5.08 | 57 |  | 102 nM |
| Cc1cc([C@H](C)N2CC[C@@H](C)[C@H](c3cc(C(F)F)nc4ncnn34)C2)cc(Cl)n1 (single isomer, unassigned) [Compound 4] | 99% |  | 1100 nM | 88% | <5 | 45 | 7.76 nM |  |
| Cc1cc([C@@H](C)N2CC[C@@H](C)[C@H](c3cc(C(F)F)nc4ncnn34)C2)cc(Cl)n1 (single isomer, unassigned) [Compound 5] | 100% |  | 1510 nM | 87% | 5.13 | 55 | 77.6 nM |  |
| C[C@@H]1CCN([C@H](C)c2ccc3ncsc3c2)C[C@H]1c1cc(C(F)F)nc2ncnn12 (single isomer, unassigned) [Compound 12] | 99% |  | 2040 nM | 86% | ~5.07 | 54 |  | 44.7 nM |
| C[C@@H]1CCN([C@@H](C)c2ccc3ncsc3c2)C[C@H]1c1cc(C(F)F)nc2ncnn12 (single isomer, unassigned) [Compound 13] | 98% |  | 1480 nM | 85% | ~5.02 | 47 |  | 58.9 nM |
| Cc1cc(CN2CC[C@@H](C)[C@@](F)(c3cc(C(F)F)nc4ncnn34)C2)cc(C)n1 (single isomer, unassigned) [Compound 49] | 86% | 2140 nM | > 10000 nM | 12% | <5 | 17 |  |  |
| COc1ccc(CN2CCC[C@](C)(c3cc(C(F)F)nc4ncnn34)C2)c(OC)c1.Cl (stereo in doubt) [Compound 53] | 14% | 6920 nM | > 10000 nM | 0% | <5 | 3 |  |  |
| C[C@]1(c2cc(C(F)F)nc3ncnn23)CCCN(Cc2ccc(F)c(F)c2)C1.Cl (stereo in doubt) [Compound 54] | 15% |  | > 10000 nM | 9% | <5 | 5 | ~8910 nM |  |
| Cc1cc(CN2CC[C@@H](C)[C@H](c3cc(C(F)F)nc4ncnn34)C2)cc(C2CC2)n1 [Compound 9] | 100% |  | 1580 nM | 83% | <5 | 34 | 5.25 nM |  |
| Cc1cc(CN2CC[C@@H](C)[C@H](c3cc(C(F)F)nc4ncnn34)C2)cc(Cl)n1.Cl [Compound 10] | 96% |  | 1580 nM | 82% | <5 | 19 |  | 24.5 nM |
| Cc1cc(CN2CC[C@H](C)[C@@H](c3cc(C(F)F)nc4ncnn34)C2)cc(Cl)n1.Cl [Compound 11] | 19% |  | ~10200 nM | 47% | ~5.4 | 71 |  | 3890 nM |
| C[C@@H]1CCN(Cc2ccc(Cl)c(Cl)c2)C[C@H]1c1cc(C(F)F)nc2ncnn12 [Compound 14] | 102% |  | 2290 nM | 80% | <5 | 39 |  | 56.2 nM |
| Cc1cc(CN2CC[C@@H](C)[C@H](c3cc(C(F)F)nc4ncnn34)C2)ccn1.Cl [Compound 15] | 95% |  | ~10000 nM | 45% | <4.52 | 17 |  | 95.5 nM |
| Cc1cc(CN2CC[C@H](C)[C@@H](c3cc(C(F)F)nc4ncnn34)C2)ccn1.Cl [Compound 16] | 4% |  | > 10000 nM | 10% | <5 | 23 |  | 5890 nM |
| CC(C)c1ccc(CN2CC[C@@H](C)[C@H](c3cc(C(F)F)nc4ncnn34)C2)cc1 [Compound 18] | 98% |  | 7760 nM | 56% | 5.1 | 60 |  | 282 nM |
| C[C@@H]1CCN(Cc2nccc3ccccc23)C[C@H]1c1cc(C(F)F)nc2ncnn12 [Compound 19] | 96% |  | 8510 nM | 58% | <5 | 35 |  | 324 nM |
| C[C@@H]1CCN(Cc2cccc(OC(F)(F)F)c2)C[C@H]1c1cc(C(F)F)nc2ncnn12 [Compound 24] | 96% |  | 7240 nM | 58% |  |  |  | 692 nM |
| C[C@@H]1CCN(Cc2ccc(C(F)(F)F)cc2)C[C@H]1c1cc(C(F)F)nc2ncnn12 [Compound 39] | 99% |  | 6170 nM | 65% |  |  | 170 nM |  |
